Literature values in patent publication US8263578B2, “Stable bortezomib formulations” (InnoPharma, Inc., priority 2010, dated 2012).
Read-outs that look alike come from different tables or passages of the source.

Conditions: 25° C.

Question: With CC(C)C[C@H](NC(=O)[C@H](Cc1ccccc1)NC(=O)c1cnccn1)B(O)O [Bortezomib, N-(2-pyrazine) carbonyl-L-phenylalanine-L-leucine boronic acid] as the compound, how does the degraded (0.5 mg/mL in ethanol:normal saline solution (2:98, pH 2.8), 1 month) read?
Answer: Its degraded is 20%.

Question: What about the degraded (propylene glycol:ethanol:water (50:10:40), 8 months) of the same compound?
Answer: Its degraded is 20%.
